In patent publication US20080299638A1 (priority 2004, published 2008):
In brackets after ≈: the same amount, converted by molar mass. Several values for one entry are separate records, joined by “and”; a condition that tells them apart may be missing. Equal values may be shown once.

Experiments:
2.2.15 cells = test: Arginase toxicity to cells (CPE method, Reed-Muench); assay type: cell-based, human; conditions: 8 days drug addition
Method: Divide experiment into control group and test groups with different drug concentration. Digest cells, dilute to 200,000 cells/ml, transfer to culture plate, 100 μl per well for 96-well plate, incubate for 24 hours under 5% CO2 at 37° C., ready for experiment when cells grown into monolayer. […] Observe cytopathological changes, 8 days or 4 days under microscope, totally destroyed is 4; 75% destroyed is 3; 50% destroyed is 2, 25% destroyed is 1; no changes is 0. Calculate TC50 and TC0 according to Reed-Muench Method:
A=log>50% drug concentration; B=log<50% drug concentration; C=log times of dilution
Starting from 40 IU/ml and subsequently 20, 10, 5, 2.5 IU/ml, change drug solution every 4 days until 8 days, observe cytopathological changes under microscope, and check for CPE with microscope.

HBsAg = test: Suppression of HBsAg secretion in 2.2.15 cells (radioimmunoassay, cpm); assay type: cell-based, hepatitis B virus
Method: (§1) Grow 200000 cells/ml 2.2.15 cell on 24-well plate, 1 ml per well, incubate for 24 hours under 5% CO2 at 37° C. […] 4 wells per concentration, incubate under 5% CO2 at 37° C., change drug solution every 4 days with the same concentration, retrieve culture medium at day 8, preserve at −20° C. Repeat experiment for 2 batches, test for HBsAg and HBeAg separately. Check cpm value for each wells using γ-counter.
(§2) Calculating drug effectiveness: calculate the mean and standard deviation of cpm from the cell control group and groups with different drug concentration, P/N value and percent suppression, IC50 and SI. • (1)
(§3) [formula] • (2) Calculate IC50 for drug suppression of antigen:
(§4) [formula] • (4) Calculate the cpm differences between HBsAg and HBeAg in different dilutions and control groups by t-test.

[1] = tested on: HBV-DNA in supernatant of 2.2.15 cell culture; test: HBV-DNA dot blot in supernatant of 2.2.15 cell culture; assay type: cell-based, hepatitis B virus; conditions: day 8; for HBV-DNA in cell culture supernatant, CPM: control 3808.34
Method: Extraction of HBV-DNA from 2.2.15 cells supernatant: Grow 200000 cells/ml 2.2.15 cell on 24-well plate, 1 ml per well, add drugs after 24 hours incubation, change drug solution every 4 days with the same concentration, collect supernatant from cell culture after 8 days of incubation counted from the day drugs added into the culture, precipitate with polyethylene glycol, digest with proteinase K, extract with phenol:chloroform:isopentanol, nucleic acid precipitation by absolute ethanol and so on procedures, vacuum dry, re-dissolve in TE buffer as sample.
Dot blot: place dots: take 20 μl sample (contains 25 μg DNA), denature, neutralize, serial dilute 20×SSC buffer to 1:8 dilution on nitrocellulose membrane, oven dry, pre-hybridize, hybridize, wash membrane, radioactive self exposure and so on procedures. Develop X ray film with conventional method. Scan developed film with scanner, measure density with gel-pro software, calculate suppression rate and IC50.

HBeAg = test: Suppression of HBeAg secretion in 2.2.15 cells (radioimmunoassay, cpm); assay type: cell-based, hepatitis B virus
Method: as §1, §2, §3, §4

[2] = Lamivudine 50 μg/ml, batch 1, day 8
[3] = Lamivudine 50 μg/ml, batch 2, day 8
[4] = Lamivudine 50 μg/ml, two batches average, day 8
[5] = Lamivudine 50 μg/ml, two batches average, day 8, listed as lamivudine
[6] = Lamivudine 100 μg/ml, batch 1, day 8
[7] = Lamivudine 100 μg/ml, batch 2, day 8
[8] = Lamivudine 100 μg/ml, two batches average, day 8
[9] = Lamivudine 100 μg/ml, two batches average, day 8, listed as lamivudine
[10] = Lamivudine 200 μg/ml, batch 1, day 8
[11] = Lamivudine 200 μg/ml, batch 2, day 8
[12] = Lamivudine 200 μg/ml, two batches average, day 8
[13] = Lamivudine 200 μg/ml, two batches average, day 8, listed as lamivudine
[14] = Lamivudine 400 μg/ml, batch 1, day 8
[15] = Lamivudine 400 μg/ml, batch 2, day 8
[16] = Lamivudine 400 μg/ml, two batches average, day 8
[17] = Lamivudine 400 μg/ml, two batches average, day 8, listed as lamivudine
[18] = Lamivudine 800 μg/ml, batch 1, day 8
[19] = Lamivudine 800 μg/ml, batch 2, day 8
[20] = Lamivudine 800 μg/ml, two batches average, day 8
[21] = Lamivudine 800 μg/ml, two batches average, day 8, listed as lamivudine

Q: `Nc1ccn([C@@H]2CS[C@H](CO)O2)c(=O)n1` [Lamivudine, lamivudine, reference compound] was tested. Which TC0 (2.2.15 cells) did it give?
A: Its TC0 is 800 ± 0 µg/mL.

Q: And the TC50 (2.2.15 cells)?
A: The TC50 was 1198.97 µg/mL (≈ 5.23 mM).

Q: And the TC0 (2.2.15 cells; listed as lamivudine)?
A: The TC0 was 800 ± 0 µg/mL.

Q: What about the TC50 (2.2.15 cells; listed as lamivudine) of the same molecule?
A: The TC50 was 1198.97 ± 97.50 µg/mL and 1198.97 µg/mL.

Q: And the IC50 (HBsAg; Hepatitis B virus, 192 h, read-out: HBsAg IC50)?
A: The IC50 was over 800 µg/mL.

Q: And the “HBsAg (CPM) % suppression” value (HBsAg; [2])?
A: Its value is 6.24%.

Q: What about the “HBsAg (CPM) % suppression” value (HBsAg; [3]) of the same molecule?
A: The value was 0.65%.

Q: What about the “HBsAg (CPM) % suppression” value (HBsAg; [4]) of the same molecule?
A: The value was 3.45 ± 3.95%.

Q: What about the “HBsAg (CPM) % suppression” value (HBsAg; [5]) of the same molecule?
A: The value was 3.45±3.95%.

Q: What about the “HBsAg (CPM) % suppression” value (HBsAg; [6]) of the same molecule?
A: The value was 12.05%.

Q: And the “HBsAg (CPM) % suppression” value (HBsAg; [7])?
A: Its value is 5.15%.

Q: And the “HBsAg (CPM) % suppression” value (HBsAg; [8])?
A: Its value is 8.6 ± 4.88%.

Q: What about the “HBsAg (CPM) % suppression” value (HBsAg; [9]) of the same molecule?
A: The value was 8.60±4.88%.

Q: What about the “HBsAg (CPM) % suppression” value (HBsAg; [10]) of the same molecule?
A: Its value is 2.35%.

Q: What about the “HBsAg (CPM) % suppression” value (HBsAg; [11]) of the same molecule?
A: The value was 8.99%.

Q: What about the “HBsAg (CPM) % suppression” value (HBsAg; [12]) of the same molecule?
A: Its value is 5.67 ± 4.7%.

Q: What about the “HBsAg (CPM) % suppression” value (HBsAg; [13]) of the same molecule?
A: Its value is 5.67±4.70%.

Q: And the “HBsAg (CPM) % suppression” value (HBsAg; [14])?
A: The value was 8.10%.

Q: And the “HBsAg (CPM) % suppression” value (HBsAg; [15])?
A: Its value is 0%.

Q: What about the “HBsAg (CPM) % suppression” value (HBsAg; [16]) of the same molecule?
A: The value was 4.05 ± 5.73%.

Q: And the “HBsAg (CPM) % suppression” value (HBsAg; [17])?
A: Its value is 4.05±5.73%.

Q: What about the “HBsAg (CPM) % suppression” value (HBsAg; [18]) of the same molecule?
A: The value was 0%.

Q: And the “HBsAg (CPM) % suppression” value (HBsAg; [19])?
A: The value was 9.299%.

Q: And the “HBsAg (CPM) % suppression” value (HBsAg; [20])?
A: Its value is 4.65 ± 6.58%.

Q: What about the “HBsAg (CPM) % suppression” value (HBsAg; [21]) of the same molecule?
A: Its value is 4.65±6.58%.

Q: What about the “HBsAg IC50” value (HBsAg; batch 1, day 8) of the same molecule?
A: The value was over 800 µg/mL.

Q: What about the “HBsAg IC50” value (HBsAg; two batches average, day 8) of the same molecule?
A: Its value is >800 ± 0 TC0 μg/ml and >800 μg/ml.

Q: What about the IC50 ([1]; Hepatitis B virus, 192 h, first batch experiment) of the same molecule?
A: The IC50 was 114 µg/mL (≈ 0.496 mM).

Q: And the “% suppression of HBV-DNA in cell culture supernatant” value (shortened to “% suppression of HBV-DNA”) ([1]; Lamivudine 50 μg/ml)?
A: The value was 25.6576%.

Q: And the “HBV-DNA in cell culture supernatant, CPM” value ([1]; Lamivudine 50 μg/ml)?
A: The value was 2831.21 CPM.

Q: What about the “% suppression of HBV-DNA” value ([1]; Lamivudine 100 μg/ml) of the same molecule?
A: Its value is 61.5237%.

Q: What about the “HBV-DNA in cell culture supernatant, CPM” value ([1]; Lamivudine 100 μg/ml) of the same molecule?
A: Its value is 1465.31 CPM.

Q: And the “% suppression of HBV-DNA” value ([1]; Lamivudine 200 μg/ml)?
A: Its value is 71.6404%.

Q: What about the “HBV-DNA in cell culture supernatant, CPM” value ([1]; Lamivudine 200 μg/ml) of the same molecule?
A: The value was 1080.03 CPM.

Q: And the “% suppression of HBV-DNA” value ([1]; Lamivudine 400 μg/ml)?
A: The value was 79.1083%.

Q: What about the “HBV-DNA in cell culture supernatant, CPM” value ([1]; Lamivudine 400 μg/ml) of the same molecule?
A: Its value is 795.628 CPM.

Q: What about the “% suppression of HBV-DNA” value ([1]; Lamivudine 800 μg/ml) of the same molecule?
A: The value was 82.5905%.

Q: And the “HBV-DNA in cell culture supernatant, CPM” value ([1]; Lamivudine 800 μg/ml)?
A: Its value is 663.013 CPM.

Q: What about the IC50 (HBeAg; Hepatitis B virus, 192 h, read-out: HBeAg IC50) of the same molecule?
A: The IC50 was over 800 µg/mL.

Q: What about the “HBeAg (CPM) % suppression” value (HBeAg; [2]) of the same molecule?
A: The value was 13.20%.

Q: And the “HBeAg (CPM) % suppression” value (HBeAg; [3])?
A: The value was 14.99%.

Q: And the “HBeAg (CPM) % suppression” value (HBeAg; [4])?
A: Its value is 14.10 ± 1.27%.

Q: And the “HBeAg (CPM) % suppression” value (HBeAg; [5])?
A: Its value is 14.10±1.27%.

Q: What about the “HBeAg (CPM) % suppression” value (HBeAg; [6]) of the same molecule?
A: The value was 17.48%.

Q: And the “HBeAg (CPM) % suppression” value (HBeAg; [7])?
A: Its value is 14.19%.

Q: And the “HBeAg (CPM) % suppression” value (HBeAg; [8])?
A: The value was 15.84 ± 2.33%.

Q: And the “HBeAg (CPM) % suppression” value (HBeAg; [9])?
A: Its value is 15.84±2.33%.

Q: What about the “HBeAg (CPM) % suppression” value (HBeAg; [10]) of the same molecule?
A: Its value is 16.35%.

Q: What about the “HBeAg (CPM) % suppression” value (HBeAg; [11]) of the same molecule?
A: The value was 19.31%.

Q: And the “HBeAg (CPM) % suppression” value (HBeAg; [12])?
A: Its value is 17.83 ± 2.09%.

Q: What about the “HBeAg (CPM) % suppression” value (HBeAg; [13]) of the same molecule?
A: The value was 17.83±2.09%.

Q: And the “HBeAg (CPM) % suppression” value (HBeAg; [14])?
A: Its value is 12.67%.

Q: What about the “HBeAg (CPM) % suppression” value (HBeAg; [15]) of the same molecule?
A: The value was 13.32%.

Q: What about the “HBeAg (CPM) % suppression” value (HBeAg; [16]) of the same molecule?
A: The value was 12.99 ± 0.46%.

Q: What about the “HBeAg (CPM) % suppression” value (HBeAg; [17]) of the same molecule?
A: Its value is 12.99±0.46%.

Q: What about the “HBeAg (CPM) % suppression” value (HBeAg; [18]) of the same molecule?
A: The value was 6.10%.

Q: What about the “HBeAg (CPM) % suppression” value (HBeAg; [19]) of the same molecule?
A: Its value is 10.37%.

Q: And the “HBeAg (CPM) % suppression” value (HBeAg; [20])?
A: The value was 8.23 ± 3.02%.

Q: And the “HBeAg (CPM) % suppression” value (HBeAg; [21])?
A: The value was 8.23±3.02%.

Q: And the “HBeAg IC50” value (HBeAg; batch 1, day 8)?
A: Its value is over 800 µg/mL.

Q: And the “HBeAg IC50” value (HBeAg; two batches average, day 8)?
A: The value was >800 ± 0 TC0 800 μg/ml and >800 μg/ml.
